Experimental data published in paper PMC4996985, “Sequence-Based Screening for Rare Enzymes: New Insights into the World of AMDases Reveal a Conserved Motif and 58 Novel Enzymes Clustering in Eight Distinct Families” (Frontiers in Microbiology, 2016).

Target: T1, AmdP (Polymorphum gilvum, UniProt F2IXG8)
T1 construct: gene SL003B_3169; full length, 744 bp codon-adapted synthetic gene, pET-21a NdeI/XhoI, C-terminal His6 tag kept, E. coli BL21, Ni-NTA purified
T1 sequence (F2IXG8 1-247): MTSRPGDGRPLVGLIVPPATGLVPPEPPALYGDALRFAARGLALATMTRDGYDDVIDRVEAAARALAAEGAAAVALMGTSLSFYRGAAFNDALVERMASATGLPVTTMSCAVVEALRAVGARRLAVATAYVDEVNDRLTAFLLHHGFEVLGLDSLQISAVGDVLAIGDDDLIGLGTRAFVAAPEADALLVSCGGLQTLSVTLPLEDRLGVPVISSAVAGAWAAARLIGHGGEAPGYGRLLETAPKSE
Experiment: chiral GC of product after derivatisation
Assay type: biochemical
Settings: 10 mM substrate, 50 mM Tris pH 7.5; substrate contained <4% racemic flurbiprofen

Compound: CC(C(=O)O)(C(=O)O)c1ccc(-c2ccccc2)c(F)c1 [2a, flurbiprofen malonate]
- chiral GC of product after derivatisation: selectivity of all three AMDases was analyzed with aryl malonic acid derivates
